Data from US20050239873A1 (priority 1999, published 2005).
Several values for one entry are separate records, joined by “and”; a condition that tells them apart may be missing. Equal entries are not always repeated.

Assays:
[1] = test system: TABX2S cells (over-expressing Bcl-xL); test: cells; conditions: for difference in sensitivity of the two cell lines: TABX2S vs TABX1A
Source text: (§1) Briefly, a DNA fragment encoding the full-length mouse BCl-xL cDNA was isolated from the plasmid PBS.BCL-xL (Tzung et al., Am. J. Path. 150:1985-1995, 1997, incorporated herein by reference in its entirety) by digestion with the restriction endonuclease EcoRI. This EcoRI fragment was cloned into the EcoRI site of the mammalian expression vector pSFFV (Fuhlbrigge et al., Proc. Nat. Acad. Sci. USA 85:5649-5653, 1988) in both sense and antisense orientations, to form expression plasmids pSFFV.Bcl-xL(sense) or pSFFV.Bcl-xL(antisense), respectively. The tumorigenic murine hepatocyte cell line TAMH was transfected by lipofection (Lipofectamine, Life Technologies, Rockville, Md., according to the manufacturer's recommendations) with the plasmids pSFFV.neo (the control), pSFFV.Bcl-xL(sense) or pSFFV.Bcl-xL(antisense). […] Transfectants were selected for the acquisition of neomycin resistance by growing cells in the presence of 750 μg/ml of G418. Bulk transfectants were cloned by limiting dilution and individual clones were screened by immunoblot analysis to determine the level of BCl-xL protein expression as described below.
(§2) Selected transfectants were then tested for whole cell sensitivity to several apoptotic agents. Transfected cells were cultured to reach approximately 80% confluency prior to plating an equal number of cells from selected clones on 12-well tissue culture plates. The transplanted cells were treated with the following apoptotic agents: 5 μM doxorubicin for 48 hours; 5 μM cisplatin for 48 hours; or with 200 U/ml tumor necrosis factor (TNF) plus 1 μg/ml actinomycin D for 18 hours. Cell viability was determined by trypan blue dye exclusion. The percentage of viable cells was calculated by the number of viable cells (treated with a particular apoptogenic agent) divided by the number in the control group (untreated).
TABX2S cells and TABX1A cells were also examined for the effects of various mitochondrial inhibitors. […] Azide was diluted from an aqueous stock solution. […] Controls received an equivalent concentration of diluent. At various time points after drug treatment, cells were trypsinized, and cell viability was determined by trypan blue dye exclusion. The number of viable cells were counted and normalized to control group (i.e., % control=number of viable cells (treated group)/number of viable cells (control group)×100).

[2] = test system: TABX1A cells (under-expressing Bcl-xL); test: Cell viability by trypan blue dye exclusion; conditions: Mus musculus, 48 h, read-out: cells remained viable
Source text: as §1
as §2, with “The transplanted cells were treated with the following apoptotic agents: 5 μM doxorubicin for 48 hours; 5 μM cisplatin for 48 hours; or with 200 U/ml tumor necrosis factor (TNF) plus 1 μg/ml actinomycin D for 18 hours.” left out
(§3) TABX2S cells and TABX1A cells were also examined for the effects of various mitochondrial inhibitors. […] At various time points after drug treatment, cells were trypsinized, and cell viability was determined by trypan blue dye exclusion. The number of viable cells were counted and normalized to control group (i.e., % control=number of viable cells (treated group)/number of viable cells (control group)×100).

TAMH.neo cells (control) = test: Cell viability by trypan blue dye exclusion; conditions: Mus musculus, 48 h, read-out: cells remained viable
Source text: as §1
as §2, with “The transplanted cells were treated with the following apoptotic agents: 5 μM doxorubicin for 48 hours; 5 μM cisplatin for 48 hours; or with 200 U/ml tumor necrosis factor (TNF) plus 1 μg/ml actinomycin D for 18 hours.” left out
as §3

NCI-H929 = test: Propidium iodide exclusion / flow cytometry cytotoxicity; type: cell-based, human; conditions: oligomycin 2-10 mg/ml, rotenone 0.5-2.5 mg/ml
Experimental: (§4) Cell survival was assayed by exclusion of propidium iodide (PI; 10 μg/ml) by unfixed cells. Annexin V-FITC (Pharmingen) or 3, 3′-dihexyloxacarbocyanine iodide (DiOC6(3); Molecular Probes) staining was analyzed together with PI to discriminate early apoptotic cells. Apoptotic cells were also measured as sub-G1 events among ethanol-fixed cells stained with 10 μg/ml PI. All cell samples were analyzed using a benchtop FACSCalibur™ (Becton Dickinson, San Jose, Calif.). Flow data were analyzed using MultiCycle AV software (Phoenix Flow Systems). For intracellular pH measurements, cell pellets were washed once and resuspended in 2 ml of HEPES-buffered medium (no phenol red and no serum). Carboxy-SNARF-1-AM (Molecular Probes, 1 mM stock in DMSO, stored at −20° C.) was added to a final concentration of 10 μM, and the cells were incubated for 30 min at 37° C. Following incubation with SNARF, cells were sedimented and the pellets were held on ice. Immediately before analysis, pellets were resuspended in […] (HBSS; experimental buffer) or high-[K+] buffer containing nigericin (calibration samples).

RPMI-8226 = test: as above; type: cell-based, human; conditions: oligomycin 2-10 mg/ml, rotenone 0.5-2.5 mg/ml
Experimental: as §4

U266 = test: as above; type: cell-based, human; conditions: oligomycin 2-10 mg/ml, rotenone 0.5-2.5 mg/ml
Experimental: as §4

Bcl-xL(ΔC) WT = molecular target: T1, Bcl-xL(ΔC) WT (Homo sapiens, UniProt Q07817); test: Pore-forming activity, calcein release from liposomes; type: biochemical
T1 construct: inferred from Ni-NTA purification and the pET22b(+) NdeI/XhoI cloning); made in house; host or cells: Escherichia coli BL21(DE3) carrying pUB520
Experimental: Large unilamellar vesicles composed of 60% dioleoylphophatidylcholine and 40% dioleoylphosphatidylglycerol were prepared by the extrusion method of Mayer et al., supra. Lipid stocks, in chloroform, were mixed and dried under a stream of nitrogen gas. The lipid was resuspended by vortexing for 30 min in a solution of 40 mM calcein (Molecular Probes), 25 mM KCl, and 10 mM KOAc, pH 5.0. After 10 freeze-thaw cycles, the lipid suspension was extruded through two 0.1 μm pore diameter Nucleopore filters. Non-entrapped dye was removed by passage over a Sephadex G10 column (Amersham Biosciences). Lipid concentration was measured using the ammonium ferrothiocyanate method (Stewart, Anal. Biochem. 104:10-14, 1980).
For pore assays, recombinant truncated Bcl-2 family protein or mutant protein (Bcl-xL(ΔC)) (500 nM) was added to large unilamellar vesicles (60 μM lipid concentration) in 100 mM KCl, 10 mM KOAc, pH 5.0, and fluorescence measured (490 nm excitation, 520 nm emission) with a Fluoromax-3 spectrophotometer. Peptides of the BH3 domain were incubated with the BCl-xL(ΔC) 5 min prior to mixing with liposomes. AA1 was added to liposomes 1 min before adding the Bcl-xL(ΔC) protein. Samples for kinetic assays were analyzed in a thermostatted cuvette at 37° C. with constant stirring. Dose responses were measured in black quartz microplates (Hellma) at room temperature. Calcein release was expressed as percentage of maximum release with detergent lysis (0.1% Triton X-100).

Bcl-xL(ΔC) = molecular target: T2, Bcl-xL(ΔC) (Homo sapiens, UniProt Q07817); test: Displacement of AA bound to Bcl-xL(ΔC); type: binding
T2 construct: made in house; host or cells: Escherichia coli BL21(DE3) carrying pUB520
Experimental: The non-peptide BCl-xL inhibitors, BH3I-1 and BH3I-2, interact with Phe-97 and Ala-142 in the BCl-xL hydrophobic pocket by NMR chemical shift perturbation (Degterev et al., Nat. Cell Biol. 3:173-182, 2001; Lugovskoy et al., J. Amer. Chem. Soc. 124:1234-1240, 2002). It was determined that BH3I-1 competes with AA1 for Bcl-xL(ΔC) binding.

[3] = test system: mitochondria with normal levels of Bcl-xL expression; test: JC-1 membrane potential of isolated mitochondria; parameters: species or system murine
Experimental: Isolated mitochondria were loaded with JC-1 prior to treatment, and mitochondrial labeling was determined using FACS. […] Antimycin A-treated mitochondria with high levels of Bcl-xL had lower levels of JC-1 staining than parallel samples treated with CCCP. Uncoupled mitochondria still retain a significant Donnan potential because of trapped anionic species and it is likely that antimycin-induced PT and/or swelling of mitochondria led to a further reduction of this residual potential.
As observed for the parent compound, antimycin A3, mitochondria with normal levels of BCl-xL expression were not affected by the 2-methoxy analog.

[4] = molecular target: T3, recombinant human Bcl-2ΔC22 (Homo sapiens, UniProt P10415); test: Antimycin A3 fluorescence binding and competition assay
T3 construct: poly-His (N); made in house
Experimental: In this assay, 0 to 5 μM antimycin A3 (Sigma Chemical Co., St. Louis, Mo.) was added to a physiological buffer (50 mM Tris-HCl pH 8.0, 0.2 M NaCl, 2 mM EDTA, 0.5% v/v glycerol) containing recombinant Bcl-2 or BCl-xL protein under conditions that permitted antimycin A3 to bind to the BH3-binding domain of Bcl-2 or BCl-xL (22.5° C. on a Hitachi F-2500 fluorescence spectrofluorimeter equipped with a thermostatted cell holder). […] The excitation wavelength was 335 nm, and the maximum emission wavelength for antimycin A3 was 428 nm with a slit width of 10 nm. The samples were mixed in a quartz cuvette and checked for inner filter effect over the concentration range of antimycin A3 used for this study. Blanks containing antimycin A3 at the same concentration as the experimental samples were used as controls in all measurements and necessary background corrections were made.
Recombinant human Bcl-2ΔC22 (a recombinant human Bcl-2 with a delection of 22 amino acid residue membrane anchor sequence from the carboxyl end) and mouse Bcl-xLΔC20 (a recombinant murine BCl-xL with a delection of the 20 amino acid residue membrane anchor sequence from the carboxyl end) fused with poly-His at the N-terminus were chromatographically purified to homogeneity. The concentrations of antimycin A3 and stock solutions of recombinant proteins were quantitated using an extinction coefficient of 7.24/mM/cm at 320 nm and by Bradford assay, respectively. The stoichiometric ratio of antimycin A3 and Bcl-2 producing the maximal change in antimycin A3 fluorescence was determined with incremental addition of antimycin A3 to a 1.98 μM solution of recombinant Bcl-2 in a volume of 2.1 milliliters. […] For peptide displacement experiments, a solution of 2 μM antimycin A3 and 3 μM Bcl-2 was allowed to reach binding equilibrium at 4° C. prior to fluorescence measurements. Native peptide corresponding to the BH3 domain of Bak (72-[…]87 (SEQ ID NO:1)) or a mutant peptide with a single amino acid change (Leu78Ala-BH3) was added to the solution and the fluorescence measurements were repeated. […]

[5] = test system: TAMH cells over-expressing Bcl-xL A142L; test: Cytotoxicity (Alamar Blue) in Bcl-xL transfectants; type: cell-based, murine; conditions: 24 h
Experimental: (§5) TAMH cells were transfected with DNA encoding each of the mutant BCl-xL proteins by lipofection (See Example 1 for method). For analysis of BCl-xL expression, 20 μg of cell protein was separated by 20% SDS-PAGE and transferred to nitrocellulose membranes. Immunodetection of BCl-xL was carried out using rabbit anti-Bcl-xL antibody and Protein A/horseradish peroxidase conjugate, followed by chemiluminescent detection. Cells were grown to about 80% confluence in 96-well plates followed by addition of 100 μl of 2X AA1 or staurosporine (STS) solution in complete medium. STS is a natural product originally isolated from the bacterium Streptomyces and found to be capable of inducing apoptosis in certain cells and which induction of apoptosis could be blocked by the expression of a Bcl-2 family protein. Cell viability was determined spectrophotometrically after 24 h treatment as the ratio of reduced and oxidized Alamar Blue (BIOSOURCE) at 570 nm and 600 nm, respectively. All results were normalized against DMSO controls. LD50 values were calculated by non-linear regression analysis using Prism software (Graphpad).

[6] = test system: TAMH cells over-expressing Bcl-xL E92L; test: Cytotoxicity (Alamar Blue) in Bcl-xL transfectants; type: cell-based, murine; conditions: 24 h
Experimental: as §5

[7] = test system: TAMH cells over-expressing Bcl-xL F146L; test: Cytotoxicity (Alamar Blue) in Bcl-xL transfectants; type: cell-based, murine; conditions: 24 h
Experimental: as §5

[8] = test system: TAMH cells over-expressing Bcl-xL F97W; test: Cytotoxicity (Alamar Blue) in Bcl-xL transfectants; type: cell-based, murine; conditions: 24 h
Experimental: as §5

[9] = test system: TAMH cells over-expressing Bcl-xL WT; test: Cytotoxicity (Alamar Blue) in Bcl-xL transfectants; type: cell-based, murine; conditions: 24 h
Experimental: as §5

[10] = test system: TAMH vector-only control cells; test: Cytotoxicity (Alamar Blue); type: cell-based, murine; conditions: 24 h
Experimental: as §5

T1 sequence (Q07817 1-211 limits assumed, stated change not applied): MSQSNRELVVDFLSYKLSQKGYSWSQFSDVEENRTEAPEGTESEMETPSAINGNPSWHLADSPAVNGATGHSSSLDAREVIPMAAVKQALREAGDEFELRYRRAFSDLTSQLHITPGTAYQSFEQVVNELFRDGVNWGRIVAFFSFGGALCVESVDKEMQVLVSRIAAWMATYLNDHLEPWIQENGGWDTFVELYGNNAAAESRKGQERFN
T2 sequence (Q07817 1-211 limits assumed, stated change not applied): as above
T3 sequence (P10415 1-217 limits assumed, stated change not applied): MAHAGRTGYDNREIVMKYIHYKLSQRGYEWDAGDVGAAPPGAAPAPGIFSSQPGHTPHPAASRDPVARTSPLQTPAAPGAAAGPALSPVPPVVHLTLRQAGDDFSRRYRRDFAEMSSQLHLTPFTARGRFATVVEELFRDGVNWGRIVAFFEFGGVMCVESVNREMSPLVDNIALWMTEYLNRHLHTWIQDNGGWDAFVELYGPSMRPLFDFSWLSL

COc1cccc2c1C(=O)c1c(O)c3c(c(O)c1C2=O)C[C@@](O)(C(=O)CO)C[C@@H]3O[C@H]1C[C@H](N)[C@H](O)[C@H](C)O1 [doxorubicin]
viability at 5 µM ([1]; Mus musculus, 48 h, read-out: cells remained viable): 88%
viability at 5 µM [2]: 20%
viability at 5 µM (TAMH.neo cells (control)): 50%

C=C(C)[C@H]1Cc2c(ccc3c2O[C@@H]2COc4cc(OC)c(OC)cc4[C@@H]2C3=O)O1 [rotenone]
difference in sensitivity of the two cell lines [1]: no significant differences
time until cell death apparent ([1]; after treatment, TABX2S and TABX1A cells): six to eight
cell killing by oxidative phosphorylation inhibitors (NCI-H929): none of the myeloma cell lines were killed
cell killing by oxidative phosphorylation inhibitors (RPMI-8226): none of the myeloma cell lines were killed
cell killing by oxidative phosphorylation inhibitors (U266): none of the myeloma cell lines were killed

CC(C)C(C(=O)O)N1C(=O)/C(=C\c2ccc(Br)cc2)SC1=S (stereo not shown) [BH3I-1]
effect on Bcl-xL pore-forming activity (Bcl-xL(ΔC) WT): no effect
Ki (Bcl-xL(ΔC)): 1870 ± 617 nM

CC[C@H]1/C=C/C=C/C[C@@H](C)[C@H](O)[C@@](C)(O)C(=O)[C@@H](C)[C@H](O)[C@@H](C)C(=O)[C@@H](C)[C@H](O)[C@@H](C)/C=C/C(=O)O[C@@H]2[C@H](C)[C@H](CC1)O[C@]1(CC[C@H](C)[C@H](C[C@@H](C)O)O1)[C@H]2C [oligomycin]
difference in sensitivity of the two cell lines [1]: no significant differences
cell killing by oxidative phosphorylation inhibitors (NCI-H929): killed
cell killing by oxidative phosphorylation inhibitors (RPMI-8226): Only NCI-H929 cells were killed
cell killing by oxidative phosphorylation inhibitors (U266): Only NCI-H929 cells were killed

CCCC[C@H]1C(=O)O[C@H](C)[C@H](NC(=O)c2cccc(NC=O)c2O)C(=O)O[C@@H](C)[C@@H]1OC(=O)CC(C)C [antimycin A3, reference compound]
mitochondrial depolarization (JC-1) [3]: not affected
increase of intrinsic fluorescence at 428 nm in the presence of Bcl-2 [4]: ≤ 18%

CN[C@@H]1C[C@H]2O[C@@](C)([C@@H]1OC)n1c3ccccc3c3c4c(c5c6ccccc6n2c5c31)C(=O)NC4 [STS, staurosporine]
Cytotoxicity LD50 [5]: 0.49 ± 0.11 µM
Cytotoxicity LD50 [6]: 0.52 ± 0.12 µM
Cytotoxicity LD50 [7]: 0.38 ± 0.04 µM
Cytotoxicity LD50 [8]: 0.34 ± 0.10 µM
Cytotoxicity LD50 [9]: 0.58 ± 0.1 µM and 0.58 ± 0.14 µM
Cytotoxicity LD50 [10]: 0.11 ± 0.01 µM
